Assay results taken from ChEMBL document CHEMBL3046079, “Synthesis, herbicidal activity, and mode of action of IR 5790” (J Agric Food Chem, 2001).
The source made the active and inactive calls. No cut-off for these calls is given here.

Tests used:
[1] = tested on: Sida spinosa; test: Post-emergence herbicidal activity against Sida spinosa assessed as injury at 150 g/ha applied at 15 days post-sowing measured after 15 days relative to control; type: functional
[2] = tested on: Echinochloa crus-galli; test: Post-emergence herbicidal activity against Echinochloa crus-galli (barnyard grass) assessed as injury at 150 g/ha applied at 15 days post-sowing measured after 15 days relative to control; type: functional
[3] = tested on: Solanum nigrum; test: Pre-emergence herbicidal activity against Solanum nigrum (black nightshade) assessed as injury at 50 g/ha applied at 24 hr post-sowing measured after 28 days relative to control; type: functional
[4] = tested on: Sorghum bicolor; test: Post-emergence herbicidal activity against Sorghum bicolor assessed as injury at 150 g/ha applied at 15 days post-sowing measured after 15 days relative to control; type: functional
[5] = tested on: Solanum nigrum; test: Post-emergence herbicidal activity against Solanum nigrum (black nightshade) assessed as injury at 50 g/ha applied at 15 days post-sowing measured after 15 days relative to control; type: functional
[6] = tested on: Phalaris arundinacea; test: Post-emergence herbicidal activity against Phalaris arundinacea assessed as injury at 150 g/ha applied at 15 days post-sowing measured after 15 days relative to control; type: functional
[7] = tested on: Portulaca oleracea; test: Post-emergence herbicidal activity against Portulaca oleracea assessed as injury at 5 g/ha applied at 15 days post-sowing measured after 15 days relative to control; type: functional
[8] = tested on: Ipomoea purpurea; test: Post-emergence herbicidal activity against Ipomoea purpurea (common morning-glory) assessed as injury at 50 g/ha applied at 15 days post-sowing measured after 15 days relative to control; type: functional
[9] = tested on: Geranium dissectum; test: Pre-emergence herbicidal activity against Geranium dissectum assessed as injury at 50 g/ha applied at 24 hr post-sowing measured after 28 days relative to control; type: functional
[10] = tested on: Ipomoea purpurea; test: Pre-emergence herbicidal activity against Ipomoea purpurea (common morning-glory) assessed as injury at 50 g/ha applied at 24 hr post-sowing measured after 28 days relative to control; type: functional
[11] = tested on: Ipomoea purpurea; test: Post-emergence herbicidal activity against Ipomoea purpurea (common morning-glory) assessed as injury at 15 g/ha applied at 15 days post-sowing measured after 15 days relative to control; type: functional
[12] = tested on: Veronica persica; test: Pre-emergence herbicidal activity against Veronica persica assessed as injury at 50 g/ha applied at 24 hr post-sowing measured after 28 days relative to control; type: functional
[13] = tested on: Gossypium hirsutum; test: Phytotoxicity against Gossypium hirsutum (cotton) assessed as injury at 50 g/ha applied as post-emergent treatment at 15 days post-sowing measured after 15 days relative to control; type: organism-based; details: in vivo, other, 360 h
[14] = tested on: Avena fatua; test: Post-emergence herbicidal activity against Avena fatua assessed as injury at 15 g/ha applied at 15 days post-sowing measured after 15 days relative to control; type: functional
[15] = tested on: Geranium dissectum; test: Post-emergence herbicidal activity against Geranium dissectum assessed as injury at 150 g/ha applied at 15 days post-sowing measured after 15 days relative to control; type: functional
[16] = tested on: Amaranthus retroflexus; test: Post-emergence herbicidal activity against Amaranthus retroflexus assessed as injury at 50 g/ha applied at 15 days post-sowing measured after 15 days relative to control; type: functional
[17] = tested on: Persicaria maculosa; test: Pre-emergence herbicidal activity against Persicaria maculosa assessed as injury at 150 g/ha applied at 24 hr post-sowing measured after 28 days relative to control; type: functional
[18] = tested on: Avena fatua; test: Pre-emergence herbicidal activity against Avena fatua assessed as injury at 50 g/ha applied at 24 hr post-sowing measured after 28 days relative to control; type: functional
[19] = tested on: Phalaris arundinacea; test: Post-emergence herbicidal activity against Phalaris arundinacea assessed as injury at 50 g/ha applied at 15 days post-sowing measured after 15 days relative to control; type: functional
[20] = tested on: Portulaca oleracea; test: Pre-emergence herbicidal activity against Portulaca oleracea assessed as injury at 150 g/ha applied at 24 hr post-sowing measured after 28 days relative to control; type: functional
[21] = tested on: Beta vulgaris; test: Phytotoxicity against Beta vulgaris assessed as injury at 50 g/ha applied as post-emergent treatment at 15 days post-sowing measured after 15 days relative to control; type: organism-based; details: in vivo, other, 360 h
[22] = target: T1, Putative protoporphyrinogen IX oxidase (Cucumis sativus) (UniProt C6L817); test: Inhibition of protoporphyrin oxidase in Cucumis sativus (cucumber) cotyledon disc assessed as light-dependent membrane damage at 100 uM incubated for 20 hr in dark followed by 8 hr in presence of light measured as electrolyte leakage relative to control
T1 sequence (whole entry): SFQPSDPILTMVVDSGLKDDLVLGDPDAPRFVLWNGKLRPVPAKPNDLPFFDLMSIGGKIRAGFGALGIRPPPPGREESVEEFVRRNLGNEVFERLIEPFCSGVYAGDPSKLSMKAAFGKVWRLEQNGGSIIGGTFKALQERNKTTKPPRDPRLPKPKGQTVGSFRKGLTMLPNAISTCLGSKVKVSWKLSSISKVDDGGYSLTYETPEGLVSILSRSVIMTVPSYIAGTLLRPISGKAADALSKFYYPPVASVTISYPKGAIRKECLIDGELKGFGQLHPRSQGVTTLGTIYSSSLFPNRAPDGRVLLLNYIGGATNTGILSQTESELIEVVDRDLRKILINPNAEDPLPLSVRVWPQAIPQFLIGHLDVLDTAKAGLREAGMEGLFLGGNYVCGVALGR

[23] = Solubility of the compound in organis solvent; type: physicochemical
[24] = tested on: Amaranthus retroflexus; test: Post-emergence herbicidal activity against Amaranthus retroflexus assessed as injury at 150 g/ha applied at 15 days post-sowing measured after 15 days relative to control; type: functional
[25] = target: T1, Putative protoporphyrinogen IX oxidase (Cucumis sativus); test: Inhibition of protoporphyrin oxidase in Cucumis sativus (cucumber) cotyledon disc assessed as light-dependent membrane damage at 1 uM incubated for 20 hr in dark followed by 8 hr in presence of light measured as electrolyte leakage relative to control
[26] = tested on: Sorghum bicolor; test: Pre-emergence herbicidal activity against Sorghum bicolor assessed as injury at 150 g/ha applied at 24 hr post-sowing measured after 28 days relative to control; type: functional
[27] = tested on: Alopecurus myosuroides; test: Post-emergence herbicidal activity against Alopecurus myosuroides assessed as injury at 50 g/ha applied at 15 days post-sowing measured after 15 days relative to control; type: functional
[28] = tested on: Galium aparine; test: Pre-emergence herbicidal activity against Galium aparine assessed as injury at 50 g/ha applied at 24 hr post-sowing measured after 28 days relative to control; type: functional
[29] = tested on: Abutilon theophrasti; test: Post-emergence herbicidal activity against Abutilon theophrasti (velvetleaf) assessed as injury at 150 g/ha applied at 15 days post-sowing measured after 15 days relative to control; type: functional
[30] = tested on: Echinochloa crus-galli; test: Pre-emergence herbicidal activity against Echinochloa crus-galli (barnyard grass) assessed as injury at 50 g/ha applied at 24 hr post-sowing measured after 28 days relative to control; type: functional
[31] = tested on: Digitaria sanguinalis; test: Pre-emergence herbicidal activity against Digitaria sanguinalis (hairy crabgrass) assessed as injury at 150 g/ha applied at 24 hr post-sowing measured after 28 days relative to control; type: functional
[32] = tested on: Amaranthus retroflexus; test: Pre-emergence herbicidal activity against Amaranthus retroflexus assessed as injury at 150 g/ha applied at 24 hr post-sowing measured after 28 days relative to control; type: functional
[33] = tested on: Matricaria chamomilla; test: Pre-emergence herbicidal activity against Matricaria chamomilla assessed as injury at 150 g/ha applied at 24 hr post-sowing measured after 28 days relative to control; type: functional

C#CCOc1cc(-n2nc(C(C)(C)C)sc2=O)c(Cl)cc1Cl
Activity [1]: 70%
Activity [2]: 10%
Activity [3]: 30%
Activity [4]: 10%
Activity [5]: 90%
Activity [6]: 30%
Activity [7]: 50%
Activity [8]: 90%
Activity [9]: 0%
Activity [10]: 0%
Activity [11]: 90%
Activity [12]: 30%
Activity [13]: 30%
Activity [14]: 0%
Activity [15]: 50%
Activity [16]: 50%
Activity [17]: 50%
Activity [18]: 0%
Activity [19]: 30%
Activity [20]: 90%
Activity [21]: 50%
inhibition [22]: 90%
solubility [23]: > 250 mg/mL
Activity [24]: 90%
inhibition [25]: inactive
Activity [26]: 50%
Activity [27]: 30%
Activity [28]: 0%
Activity [29]: 90%
Activity [30]: 30%
Activity [31]: 90%
Activity [32]: 90%
Activity [33]: 50%
